# Target: human δ-opioid receptor (Homo sapiens, UniProt P41143)
# Assay: [35S]-GTPγS functional assay
# Format: biochemical
# Details: from [35S]-GTPγS assay
# Sequence of human δ-opioid receptor (P41143 whole entry): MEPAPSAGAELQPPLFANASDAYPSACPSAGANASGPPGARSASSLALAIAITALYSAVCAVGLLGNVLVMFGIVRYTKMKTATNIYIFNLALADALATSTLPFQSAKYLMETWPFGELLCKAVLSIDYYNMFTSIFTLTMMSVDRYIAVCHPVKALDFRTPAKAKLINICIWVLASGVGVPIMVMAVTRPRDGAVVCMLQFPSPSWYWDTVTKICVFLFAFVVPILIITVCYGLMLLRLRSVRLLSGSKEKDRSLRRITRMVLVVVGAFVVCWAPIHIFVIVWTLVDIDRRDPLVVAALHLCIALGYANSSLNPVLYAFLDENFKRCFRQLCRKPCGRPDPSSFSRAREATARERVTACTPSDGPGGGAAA
compound,measurement,value
"COc1cc(O)c2c(c1)CC(=O)CCCC(=O)CCC[C@@H](C)OC2=O [Compound 4, neocosmosin C]",classification of functional activity at the human δ-opioid receptor,full agonist

# Source: article PMC3723356 (Journal of natural products, 2013)
